From patent US20230181678A1, “NOVEL ANTIBACTERIAL PEPTIDE OR PEPTIDE ANALOG AND USE THEREOF” (CAMP THERAPEUTICS INC., priority 2020, published 2023)
* marks the point of attachment. Octanoyl = CCCCCCCC(=O)*

Legend:
Format in all cases: cell-based
E. coli ATCC 25922 = test: MIC assay, sensitizing effect of peptide on antibacterial agents
Method: (§1) All MIC assay experiments were performed using the Clinical and Laboratory Standards Institute (CLSI) guidelines (Clinical & Laboratory Standards Institute: CLSI Guidelines, 2017). Bacterial cells cultured overnight were diluted to 0.05 McFarland standard using McFarland (KIT […] PLUS INSTRUMENT, Biomerieux) in Muller Hinton II Broth (cation-adjusted) (Difco). The cells were inoculated at 1.5×10^5 CFU per 200 μL solution of each well in a 96-well plate. The peptide and the antibiotic were prepared using 2-fold serially diluted concentrations. […] Incubation was performed at 37° C. for 18 hours, and then absorbance was measured at 600 nm using an EPOCH2 microplate reader (BioTek, Winooski, USA) to calculate a MIC value. The MIC value was defined as a concentration of the antibiotic or peptide at which bacterial growth was inhibited to a level of lower than 10% growth of the positive control. Fold reduction was calculated using the following expression.
Fold reduction=MIC of antibiotic alone/MIC of antibiotic in presence of sensitizing peptide
Using the same MIC assay method as in Example 1, sensitizing effects of the peptide L9P (CMP1107, 1 ug/ml), which is known as a conventional sensitive AMP, and CMP1401 (1 ug/ml) were compared on existing antibacterial agents against E. coli ATCC 25922 (FIG. 5A).
In addition, MIC screening was used to compare sensitizing effects of the competitive drug SPR741 and the peptide CMP1401 or CMP1501 on the existing antibacterial agents against E. coli ATCC 25922 (FIGS. 5B and 5C). SPR741, which is a previously known polymyxin B (PMB) analog, is a sensitive AMP, and is a drug that has been identified through preclinical experiments to be effective against Gram-negative bacteria in a case of being used together with existing Gram-positive antibiotics.
(§2) ATCC 25922, A.b. ATCC 17978, K.p. ATCC 700603, and P.a. ATCC 27853, or CRE (E.c. NDM-1, K.p. NDM-1, or K.p. KPC) (FIGS. 9 and 10).

[1] = test system: E.c. ATCC 25922, A.b. ATCC 17978, K.p. ATCC 700603, P.a. ATCC 27853, or CRE (E.c. NDM-1, K.p. NDM-1, or K.p. KPC); test: MIC assay, comparison with L9P on rifampicin or colistin; conditions: FIGS. 9 and 10
Method: as §1, §2

[2] = test system: outer membrane of E. coli NDM-1; test: Enzyme assay, outer membrane leakage (β-lactamase release, CENTA); conditions: peptide 0.63 or 1.30 uM, 37° C., 1 h; 200 μM CENTA
Method: It was observed, through an enzyme assay, whether the sensitizing peptide destroyed the outer and inner membranes of Gram-negative bacteria. In the presence of the sensitizing peptide, it was observed whether in a case where 1.5 mM ONPG was used together therewith, β-galactosidase was released from E. coli ATCC 25922 for the inner membrane, and whether in a case where 200 μM CENTA was used together therewith, β-lactamase was released from E. coli NDM-1 for the outer membrane.
Specifically, to determine leakage of the outer membrane, activity of the β-lactamase released from the outer membrane was evaluated. New Delhi metallo-β-lactamase-1 (NDm-1)-producing E. coli cells were washed three times with DPBS and suspended in the same buffer. The cells were diluted to an OD600 of 0.2 and treated with the peptide at a concentration of 0.63 or 1.30 uM at 37° C. for 1 h. After centrifugation, the supernatant was incubated with 200 μM CENTATM β-lactamase substrate at 37° C. for 1 hour. An optical density was obtained by measuring absorbance of a product of enzyme reaction at 405 nm using a microplate reader (Molecular Devices Co., Menlo Park, Calif.).
The results are illustrated in FIGS. 12A and 12B. The y-axis is absorbance measured at 405 nm, and higher absorbance is observed as a higher amount of β-lactamase is released due to destruction of the membrane.

Question: For “OctA-KKALKLAKKPLKLLK-NH2 (Octanoyl-KKALKLAKKPLKLLK-NH2) [CMP1401]”, which “Decreased MIC value of rifampicin at peptide concentration of 4 ug/ml” value (E. coli ATCC 25922; FIG. 9A, E.c. ATCC 25922, peptide 4 ug/ml) is on record?
Answer: 2 ng/mL

Question: And the “Decreased MIC value of colisitin at peptide concentration of 4 ug/ml” value (E. coli ATCC 25922; FIG. 10A, E.c. ATCC 25922, peptide 4 ug/ml)?
Answer: 7.8 ng/mL

Question: And the “sensitizing effect on existing antibacterial agents compared with SPR741” value (E. coli ATCC 25922; FIGS. 5B and 5C)?
Answer: almost the same or much better sensitizing effect

Question: What about the “sensitizing effect compared with SPR741 at half its concentration” value (E. coli ATCC 25922; peptide concentration decreased by half as compared with SPR741, FIG. 5C) of the same substance?
Answer: equal or superior effect

Question: What about the “sensitizing effect on existing antibacterial agents compared with L9P” value (E. coli ATCC 25922; peptides 1 ug/ml, FIG. 5A) of the same substance?
Answer: very good sensitizing effect

Question: And the “sensitizing effect on rifampicin or colistin compared with L9P” value [1]?
Answer: very good sensitizing effect

Question: And the “destruction of outer membrane (β-lactamase release)” value [2]?
Answer: did not destroy these membranes
